Test results published in patent publication US20250034216A1, “STEREOSELECTIVE COVALENT LIGANDS FOR ONCOGENIC AND IMMUNOLOGICAL PROTEINS” (The Scripps Research Institute, priority 2021, published 2025).

biological target: T1, MMS19_C819 (Homo sapiens, UniProt Q96T76); experiment: IA-DTB cysteine engagement; assay type: binding; details: 22Rv1 cells, 20 μM probe, 1 h, relative to DMSO
T1 construct: endogenous in cells; host or cells: 22Rv1
T1 sequence (Q96T76 1-1030): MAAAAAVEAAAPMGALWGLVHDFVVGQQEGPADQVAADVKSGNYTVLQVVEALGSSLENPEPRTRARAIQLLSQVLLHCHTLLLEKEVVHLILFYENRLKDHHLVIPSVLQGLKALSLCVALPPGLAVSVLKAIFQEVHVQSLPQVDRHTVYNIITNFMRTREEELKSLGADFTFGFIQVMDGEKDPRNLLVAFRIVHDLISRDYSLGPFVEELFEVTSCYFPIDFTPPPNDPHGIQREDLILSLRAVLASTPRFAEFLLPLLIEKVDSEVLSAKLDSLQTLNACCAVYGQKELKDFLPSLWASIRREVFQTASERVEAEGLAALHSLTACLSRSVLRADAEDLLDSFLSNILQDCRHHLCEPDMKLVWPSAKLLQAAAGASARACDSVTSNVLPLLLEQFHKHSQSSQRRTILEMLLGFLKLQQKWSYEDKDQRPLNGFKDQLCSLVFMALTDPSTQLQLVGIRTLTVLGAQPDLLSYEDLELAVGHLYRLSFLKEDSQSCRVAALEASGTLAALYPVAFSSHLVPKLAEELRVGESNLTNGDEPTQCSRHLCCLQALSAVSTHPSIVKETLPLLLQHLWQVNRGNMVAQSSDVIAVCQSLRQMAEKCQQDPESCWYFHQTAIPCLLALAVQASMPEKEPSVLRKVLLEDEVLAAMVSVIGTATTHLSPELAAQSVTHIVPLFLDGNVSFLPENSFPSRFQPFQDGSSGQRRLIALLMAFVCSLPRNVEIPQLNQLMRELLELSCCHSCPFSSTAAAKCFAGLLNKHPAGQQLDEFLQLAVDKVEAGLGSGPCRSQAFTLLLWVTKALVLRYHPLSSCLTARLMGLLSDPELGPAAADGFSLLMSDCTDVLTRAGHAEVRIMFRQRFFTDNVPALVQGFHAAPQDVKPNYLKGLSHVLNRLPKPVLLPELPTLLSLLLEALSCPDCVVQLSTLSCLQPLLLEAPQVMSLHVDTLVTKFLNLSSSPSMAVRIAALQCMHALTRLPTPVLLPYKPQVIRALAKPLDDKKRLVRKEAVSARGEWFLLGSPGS
Method in brief: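 Cells were treated in situ with electrophilic probes, then lysed, and the lysates (2 mg/mL protein) were labeled with IA-DTB for 1 h at ambient temperature. After reduction, alkylation and trypsin digestion, labeled peptides were streptavidin-enriched, TMT-labeled and fractionated. Engagement ratios are probe vs DMSO reporter intensities, averaged across replicates.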

Compared with C=CC(=O)N1C[C@@H](c2ccc(Br)cc2)[C@H]1C(=O)Nc1cccc2cccnc12 [MY-1A, (2S,3R)-1-acryloyl-3-(4-bromophenyl)-N-(quinolin-8-yl)azetidine-2-carboxamide], C=CC(=O)N1C[C@H](c2ccc(Br)cc2)[C@@H]1C(=O)Nc1cccc2cccnc12 [MY-1B, (2R,3S)-1-acryloyl-3-(4-bromophenyl)-N-(quinolin-8-yl)azetidine-2-carboxamide] is higher in “% engagement MMS19_C819” value: 1.5% for the first, 90% for the second.

With C=CC(=O)N1C[C@H](c2ccc(Br)cc2)[C@H]1C(=O)Nc1cccc2cccnc12 [MY-3A, (2S,3S)-1-acryloyl-3-(4-bromophenyl)-N-(quinolin-8-yl)azetidine-2-carboxamide] the “% engagement MMS19_C819” value was −10%.
With C=CC(=O)N1C[C@H](c2ccc(Br)cc2)[C@H]1C(=O)Nc1cccc2cccnc12 [MY-3B, (2S,3S)-1-acryloyl-3-(4-bromophenyl)-N-(quinolin-8-yl)azetidine-2-carboxamide] the “% engagement MMS19_C819” value was 11%.
